In patent publication US11649246B2, “Salts of 4-amino-N-(l-((3-chloro-2-fluorophenyl)amino)-6-methylisoquinolin-5-yl)thieno[3,2-D]pyrimidine-7-carboxamide, and crystalline forms thereof” (Hanmi Pharm. Co., Ltd., priority 2017, dated 2023):
Structures can show the parent of a compound that is named as a salt. Blank lines part the entries; values can stand above or below the compound they belong to.

What was measured:
Format in all cases: physicochemical
[1] = Dissociation constant (pKa), GLpKa method, Sirius T3; conditions: as an aqueous solution, calculated by extrapolation
Procedure: Based on these pKa values, Formula (I) is believed to be weakly basic compound.
The dissociation, pKa, was measured with a T3 (Sirius Analytical Instrument Ltd., UK). About 1 mg of Formula (I) bis-hydrochloride was transferred to a GLpKa beaker, dissolved with 43% to 53% MDM solution (ISA Water/MeOH/ACN/p-Dioxane=40/20/20/20, Sirius), adjusted to pH 1.8 with 0.5 N HCl, and titrated up to pH 12.2 with 0.5 N KOH. The pKa as an aqueous solution was calculated by extrapolation.

[2] = Solubility of bis-hydrochloride Form I by HPLC test and observation test
Procedure: Solubility was measured by HPLC according to KP, USP and EP general chapters. […] The results of solubility were same between HPLC test and observation test.

[3] = Hygroscopicity by dynamic vapor sorption (DVS); conditions: 25°, Form I
Procedure: Dynamic vapor sorption (DVS) analysis was performed in a DVS advantage (Surface measurement system, United Kingdom) analyzer at 25° C. with a relative humidity of 0% to 90%. A sample in an amount of 10 mg was placed into a wire-mesh vapor sorption balance pan and then attached to a DVS advantage dynamic vapor sorption balance via surface measurement systems. […] Upon completion of the sorption cycle, the sample was dried using the same process while maintaining a relative humidity of 0%. The changes in the sample weight during the adsorption/desorption cycle (repeated 3 times) were recorded and the hygroscopicity of the sample was measured. DVS isotherm diagrams are presented in FIGS. 1, 3, 6, 10, 13, 16 and 19 where Target PP (%) refers to relative humidity, “SORP” refers to adsorption and “DESORP” refers to desorption.
Hygroscopicity was measured by DVS where the DVS curve for Formula (I) bis-hydrochloride was recorded in a DVS Advantage I analyzer (SMS, United Kingdom). The DVS was operated over 3 cycles for measurement of the surface adsorption effects of water, from 0% RH to 90% RH at 25°.

[4] = Salt screening: solubility by HPLC according to KP, USP and EP general chapters; conditions: water, Example 1B salts
Procedure: For each Example 1B salt, a mixture of 40 mL (20 v/w) of a suitable solvent and 2 g Formula (I) free base was formed with agitation at room temperature. The indicated acid (2.2 eq.) was added to the mixture and salt formation was monitored by visual check. The resulting solid bis-acid salt was stirred for 24 hr at room temperature then filtered, and washed with a suitable solvent.
The water content, solubility in water (mg/mL), appearance, salt yield (%) and PXRD results for each of the salts of Example 1B are summarized in Table 4 where “MsOH” refers to methane sulfonic acid; “BsOH” refers to benzenesulfonic acid; “OW” refers to off-white; “W” refers to white; “Cryst” refers to crystalline; and “Amorph” refers to amorphous. Solubility was measured by HPLC according to KP, USP and EP general chapters.

pH of aqueous solution = conditions: room temperature, Form I
Procedure: Aqueous solution pH was measured by preparing 0.01%, 0.1% and 1% aqueous solutions of Formula (I) bis-hydrochloride and then shaking the solution for 30 minutes at room temperature followed by filtration. The pH of the filtered aqueous solution was measured with a S2K713 Pocket pH meter (ISFETCOM, Japan) according to the method of the Korean Pharmacopoeia.

[5] = Partition / distribution coefficient octanol-water (Sirius T3); conditions: for distributed ratio in octanol phase to water phase: ratio to 1
Procedure: The partition coefficient, Log P, was measured with a T3 (Sirius Analytical Instrument Ltd., UK). About 1 mg of Formula (I) bis-hydrochloride was added to a 15 mL GLpKa beaker, dissolved with octanol/150 mM KCl, adjusted to pH 1.8 with 0.5 N HCl, and titrated up to pH 12.2 with 0.5 N KOH. The partition coefficient of the octanol-water system was determined by correcting the difference between titration curves of the blank from the titration curve, by inserting the value of the dissociation constant measured previously.

[6] = Hygroscopicity / water content at 25° C. and 75% RH; conditions: for water content after hygroscopicity test: 25° C. and 75% RH; for Water Content (%): salt as prepared, before humidity exposure
Procedure: Various salt forms of Formula (I) were prepared from Formula (I) free base and characterized by water solubility, PXRD, DSC, DVS and hygroscopicity.

[7] = Stress stability test at 60° C.; conditions: for physicochemical stability (summary in words): up to 4 weeks
Procedure: In order to compare physicochemical stability among the crystalline form prepared in Example 3 (crystalline Formula (I) bis-hydrochloride Form I) and 16 (Formula (I) crystalline free base), and the amorphous form prepared in Comparative Example 1, a stress stability test was conducted by storing samples at 60° C., for different periods of time up to 4 weeks.

[8] = Water content of Form VI after humidity exposure (conversion to Form I)
Procedure: Crystalline Form VI was converted to Form I by two methods. In a first method, Form VI was exposed to a relative humidity of 60% at 25° C. In a second method, Form VI was exposed to a relative humidity of 20% at 21° C.

[9] = Water solubility of Formula (I) free base
Procedure: Formula (I) free base is poorly soluble in water with a solubility of less than 0.4 μg/mL. Salt forms of free base compounds may result in improved water solubility.

Compound: Cc1ccc2c(Nc3cccc(Cl)c3F)nccc2c1NC(=O)c1csc2c(N)ncnc12 [Formula (I) bis-hydrochloride salt, 4-amino-N-(1-((3-chloro-2-fluorophenyl)amino)-6-methylisoquinolin-5-yl)thieno[3,2-d]pyrimidine-7-carboxamide]
pKa1 [1]: 3.86
pKa2 [1]: 4.73
pKa3 [1]: 10.30
pKa3 ([1]; listed as Formula (I) bis-hydrochloride): 10.30
Solubility Observation ([2]; ACN): practically in soluble
Solubility Observation ([2]; DMSO): freely soluble
Solubility Observation ([2]; Dichloromethane): practically in soluble
Solubility Observation ([2]; Ethanol): very slightly soluble
Solubility Observation ([2]; Ethyl acetate): practically in soluble
Solubility Observation ([2]; Ethyl ether): practically in soluble
Solubility Observation ([2]; Methanol): sparingly soluble
Solubility Observation ([2]; Water): practically insoluble
Solubility Observation ([2]; buffer over pH 3.0): practically insoluble
Solubility Observation ([2]; n-Hexane): practically in soluble
Solubility Observation ([2]; pH 1.2 buffer): very slightly soluble
Solubility Observation ([2]; pH 2.0 buffer): very slightly soluble
water absorption (DVS) ([3]; from 0% RH to 20% RH): about 9.4%
water absorption (DVS) ([3]; from 0% RH to 90% RH): about 14.1%
water desorption (DVS) ([3]; from 10% RH to ~0% RH): about 8.9%
water absorption (DVS), increased to ([3]; from 20% RH to 90% RH): 14.1%
water desorption (DVS) ([3]; from 90% RH to 10% RH): about 5.2%
H2O Solubility ([4]; listed as HCl): 120 µg/mL
pH of aqueous solution (pH of aqueous solution; 0.1 mg/mL (0.01%) solution): 3.9
pH of aqueous solution (pH of aqueous solution; 1 mg/mL (0.1%) solution): 2.6
pH of aqueous solution (pH of aqueous solution; 10 mg/mL (1%) solution): 1.8
distributed ratio in octanol phase to water phase ([5]; neutral state at pH 11 or higher): about 20,000
logP ([5]; octanol/water (octanol/150 mM KCl), neutral state at pH 11 or higher): 4.33
logD ([5]; octanol/water, pH 7.4): 5.24
distributed ratio in octanol phase to water phase ([5]; pH 7.4): about 200,000
water content after hygroscopicity test [6]: 11.7%
Water Content (%) [6]: 6.2%
Water Content (%) ([6]; listed as HCl): 6.2%

Compound: Cc1ccc2c(Nc3cccc(Cl)c3F)nccc2c1NC(=O)c1csc2c(N)ncnc12 [Example 16, 4-amino-N-(1-((3-chloro-2-fluorophenyl)amino)-6-methylisoquinolin-5-yl)thieno[3,2-d]pyrimidine-7-carboxamide]
Purity(%) (A % by HPLC) ([7]; 2 weeks): 99.7%
Total impurities(%) (A % by HPLC) ([7]; 2 weeks): 0.29%
Purity(%) (A % by HPLC) ([7]; 7 days): 99.7%
Total impurities(%) (A % by HPLC) ([7]; 7 days): 0.29%
Purity(%) (A % by HPLC) ([7]; Initial): 99.7%
Total impurities(%) (A % by HPLC) ([7]; Initial): 0.29%
physicochemical stability (summary in words) ([7]; listed as crystalline form of the free base): remarkably superior stability over the amorphous form

Compound: Cc1ccc2c(Nc3cccc(Cl)c3F)nccc2c1NC(=O)c1csc2c(N)ncnc12 [Comparative Example 1, 4-amino-N-(1-((3-chloro-2-fluorophenyl)amino)-6-methylisoquinolin-5-yl)thieno[3,2-d]pyrimidine-7-carboxamide]
Purity(%) (A % by HPLC) ([7]; 2 weeks): 99.5%
Total impurities(%) (A % by HPLC) ([7]; 2 weeks): 0.485%
Purity(%) (A % by HPLC) ([7]; 4 weeks): 99.3%
Total impurities(%) (A % by HPLC) ([7]; 4 weeks): 0.68%
Purity(%) (A % by HPLC) ([7]; 1 day): 99.7%
Total impurities(%) (A % by HPLC) ([7]; 1 day): 0.30%
Purity(%) (A % by HPLC) ([7]; 3 days): 99.7%
Total impurities(%) (A % by HPLC) ([7]; 3 days): 0.31%
Purity(%) (A % by HPLC) ([7]; 7 days): 99.6%
Total impurities(%) (A % by HPLC) ([7]; 7 days): 0.38%
Purity(%) (A % by HPLC) ([7]; Initial): 99.7%
Total impurities(%) (A % by HPLC) ([7]; Initial): 0.32%
physicochemical stability (summary in words) ([7]; listed as amorphous form): change of purity after 7 days

Compound: Cc1ccc2c(Nc3cccc(Cl)c3F)nccc2c1NC(=O)c1csc2c(N)ncnc12 [BsOH, 4-amino-N-(1-((3-chloro-2-fluorophenyl)amino)-6-methylisoquinolin-5-yl)thieno[3,2-d]pyrimidine-7-carboxamide]
H2O Solubility [4]: 30 µg/mL
Water Content (%) [6]: 0.9%

Compound: Cc1ccc2c(Nc3cccc(Cl)c3F)nccc2c1NC(=O)c1csc2c(N)ncnc12 [MsOH, 4-amino-N-(1-((3-chloro-2-fluorophenyl)amino)-6-methylisoquinolin-5-yl)thieno[3,2-d]pyrimidine-7-carboxamide]
H2O Solubility [4]: 50 µg/mL
Water Content (%) [6]: 2.1%

More lines, now with the values ahead:

water content ([8]; after exposure at 21° C. and 20% RH for 3 hours): 8.0%
water content ([8]; after exposure at 21° C. and 20% RH for 6 hours): 10.4%
water content ([8]; after exposure at 21° C. and 20% RH for 5 days): 10.1%
water content ([8]; after exposure at 25° C. and 60% RH): 11.3%
Compound: Cc1ccc2c(Nc3cccc(Cl)c3F)nccc2c1NC(=O)c1csc2c(N)ncnc12 [Form VI, 4-amino-N-(1-((3-chloro-2-fluorophenyl)amino)-6-methylisoquinolin-5-yl)thieno[3,2-d]pyrimidine-7-carboxamide]

H2O Solubility [4]: 50 µg/mL
Water Content (%) [6]: 2.9%
Compound: Cc1ccc2c(Nc3cccc(Cl)c3F)nccc2c1NC(=O)c1csc2c(N)ncnc12 [HBr, 4-amino-N-(1-((3-chloro-2-fluorophenyl)amino)-6-methylisoquinolin-5-yl)thieno[3,2-d]pyrimidine-7-carboxamide]

solubility [9]: < 0.4 µg/mL
Compound: Cc1ccc2c(Nc3cccc(Cl)c3F)nccc2c1NC(=O)c1csc2c(N)ncnc12 [Formula (I) free base, 4-amino-N-(1-((3-chloro-2-fluorophenyl)amino)-6-methylisoquinolin-5-yl)thieno[3,2-d]pyrimidine-7-carboxamide]

H2O Solubility ([4]; listed as H2SO4): 160 µg/mL
water content after hygroscopicity test [6]: 17.1%
Water Content (%) [6]: 2.6%
Water Content (%) ([6]; listed as H2SO4): 2.6%
Compound: Cc1ccc2c(Nc3cccc(Cl)c3F)nccc2c1NC(=O)c1csc2c(N)ncnc12 [Formula (I) bis-hydrogensulfate salt, 4-amino-N-(1-((3-chloro-2-fluorophenyl)amino)-6-methylisoquinolin-5-yl)thieno[3,2-d]pyrimidine-7-carboxamide]
